The text below walks through data of ChEMBL document CHEMBL3351996, “Carbonic anhydrase inhibitory activity of sulfonamides and carboxylic acids incorporating cyclic imide scaffolds” (Bioorg Med Chem Lett, 2014).

One assay addresses Carbonic anhydrase 9 (Homo sapiens, UniProt Q16790).
A further assay addresses Carbonic anhydrase 2 (Homo sapiens, UniProt P00918). Description: Inhibition of human carbonic anhydrase 2 by stopped-flow CO2 hydrase assay.
A further assay addresses Carbonic anhydrase 12 (Homo sapiens, UniProt O43570).
A further assay addresses Carbonic anhydrase 1 (Homo sapiens, UniProt P00915). Description: Inhibition of human carbonic anhydrase 1 by stopped-flow CO2 hydrase assay.

Each structure is given as a SMILES string.

In general, Ki refers to the dissociation constant of the complex between target and ligand, obtained from inhibition or displacement. A higher Ki goes with a looser hold on the target.

Chain of Carbonic anhydrase 1 (P00915 whole entry): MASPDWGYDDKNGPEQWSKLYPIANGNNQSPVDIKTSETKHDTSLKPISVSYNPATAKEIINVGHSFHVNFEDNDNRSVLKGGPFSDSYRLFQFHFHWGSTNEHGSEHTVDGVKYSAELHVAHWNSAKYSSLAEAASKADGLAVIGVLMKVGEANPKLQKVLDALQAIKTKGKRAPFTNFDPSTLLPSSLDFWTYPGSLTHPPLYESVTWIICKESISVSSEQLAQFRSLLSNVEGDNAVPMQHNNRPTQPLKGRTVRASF
Chain of Carbonic anhydrase 12 (O43570 whole entry): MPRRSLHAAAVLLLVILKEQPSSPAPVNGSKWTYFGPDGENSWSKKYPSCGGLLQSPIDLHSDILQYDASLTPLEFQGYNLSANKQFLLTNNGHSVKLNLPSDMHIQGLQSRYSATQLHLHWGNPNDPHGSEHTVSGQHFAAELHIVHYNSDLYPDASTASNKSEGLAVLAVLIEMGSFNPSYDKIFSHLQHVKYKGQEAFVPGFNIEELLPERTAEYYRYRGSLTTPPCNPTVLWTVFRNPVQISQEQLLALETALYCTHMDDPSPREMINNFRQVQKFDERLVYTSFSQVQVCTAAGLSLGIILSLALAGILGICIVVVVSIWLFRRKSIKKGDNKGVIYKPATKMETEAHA
Description for Carbonic anhydrase 12: Inhibition of human carbonic anhydrase 12 by stopped-flow CO2 hydrase assay
Description for Carbonic anhydrase 9: Inhibition of human carbonic anhydrase 9 by stopped-flow CO2 hydrase assay

Turning to `Cc1ccc2c(c1)C(=O)N(c1ccc(S(N)(=O)=O)cc1)C2=O`, on Carbonic anhydrase 9, the Ki was found to be 3.3 nM.
Take `Cc1ccc2c(c1)C(=O)N(c1ccc(C(=O)O)cc1)C2=O`: the figures for the Ki on Carbonic anhydrase 2 and at Carbonic anhydrase 9 were over 1000 nM and 350 nM, respectively.
Turning to `O=C(O)c1ccc(N2C(=O)CCC2=O)cc1`, the values for the Ki at Carbonic anhydrase 2 and at Carbonic anhydrase 9 were over 1000 nM and 506 nM, respectively.
At Carbonic anhydrase 9, `NS(=O)(=O)c1ccc(CN2C(=O)c3c(Cl)c(Cl)c(Cl)c(Cl)c3C2=O)cc1` registered a Ki of 3.1 nM.
For `CC(C)(C)c1ccc2c(c1)C(=O)N(c1ccc(S(N)(=O)=O)cc1)C2=O`, at Carbonic anhydrase 9, the affinity, expressed as Ki, was 2.4 nM.
On to `O=C(O)c1ccc(N2C(=O)c3c(Cl)c(Cl)c(Cl)c(Cl)c3C2=O)cc1`, for which the figures for the Ki on Carbonic anhydrase 2 and at Carbonic anhydrase 9 were over 1000 nM and 4.4 nM, respectively.
In the case of `NS(=O)(=O)c1ccc(CN2C(=O)[C@H]3CC=CC[C@H]3C2=O)cc1`, the Ki on Carbonic anhydrase 9 was 2.6 nM.
Compound `NS(=O)(=O)c1ccc(CN2C(=O)c3cccc4cccc(c34)C2=O)cc1` registered a Ki at Carbonic anhydrase 9 of 4.6 nM.
In the case of `O=C(O)c1ccc(N2C(=O)c3ccccc3C2=O)cc1`, the Ki on Carbonic anhydrase 12 turned out to be 18.7 nM; on Carbonic anhydrase 2 it was 166 nM; at Carbonic anhydrase 1, 30.2 nM; at Carbonic anhydrase 9, 4.9 nM.
The corresponding values for `NS(=O)(=O)c1ccc(N2C(=O)[C@H]3CC=CC[C@H]3C2=O)cc1` are 0.57 nM, 4.8 nM, 31.2 nM and 4.4 nM.
Turning to `O=C(O)c1ccc(N2C(=O)c3cccc4cccc(c34)C2=O)cc1`, the Ki is 1.2 nM on Carbonic anhydrase 12, over 1000 nM on Carbonic anhydrase 2, over 1000 nM on Carbonic anhydrase 1 and 5.9 nM at Carbonic anhydrase 9.
As for `O=C(O)c1ccc(N2C(=O)c3nccnc3C2=O)cc1`, the Ki on Carbonic anhydrase 2 was over 1000 nM; at Carbonic anhydrase 1 it was over 1000 nM; at Carbonic anhydrase 9, 22.1 nM.
With `NS(=O)(=O)c1ccc(N2C(=O)c3ccccc3C2=O)cc1`, the affinity at Carbonic anhydrase 9, expressed as Ki, was 3.8 nM.
Regarding `CC(C)(C)c1ccc2c(c1)C(=O)N(c1ccc(C(=O)O)cc1)C2=O`, the Ki at Carbonic anhydrase 2 is over 1000 nM; at Carbonic anhydrase 9, 428 nM.
For the compound `O=C(O)c1ccc(N2C(=O)c3ccc([N+](=O)[O-])cc3C2=O)cc1`, the Ki on Carbonic anhydrase 2 and on Carbonic anhydrase 1 was over 1000 nM each time.
Turning to `NS(=O)(=O)c1ccc(CN2C(=O)CCC2=O)cc1`, the affinity on Carbonic anhydrase 9, expressed as Ki, was 29.3 nM.
On the same count and under the same terms, with `NS(=O)(=O)c1ccc(CN2C(=O)c3nccnc3C2=O)cc1` the figure was 5.9 nM; with `NS(=O)(=O)c1ccc(N2C(=O)c3nccnc3C2=O)cc1`, 2.9 nM; with `NS(=O)(=O)c1ccc(CN2C(=O)c3ccccc3C2=O)cc1`, 4.1 nM.
On the same count and under the same terms, with `NS(=O)(=O)c1ccc(N2C(=O)CCC2=O)cc1` the figure was 10.8 nM.
On to `Cc1ccc2c(c1)C(=O)N(Cc1ccc(S(N)(=O)=O)cc1)C2=O`, for which the Ki on Carbonic anhydrase 12 came to 0.85 nM; on Carbonic anhydrase 2, 26.2 nM; at Carbonic anhydrase 1, 21.8 nM; at Carbonic anhydrase 9, 5.9 nM.
As to `O=C(O)c1ccc(N2C(=O)c3cc(Cl)c(Cl)cc3C2=O)cc1`, the Ki at Carbonic anhydrase 2 was over 1000 nM; at Carbonic anhydrase 9, 41.6 nM.
The compound `NS(=O)(=O)c1ccc(N2C(=O)c3cccc4cccc(c34)C2=O)cc1` gave a Ki on Carbonic anhydrase 9 of 4.9 nM.
